These results are taken from PubChem BioAssay AID602328 (NMMLSC, 2012).

Each structure is given as a SMILES string. The source made the active and inactive calls. The rule behind the calls is not given here.

In general, IC50 refers to the concentration needed to halve the response being measured.

The experiment concerns the target Botulinum neurotoxin type A (Clostridium botulinum (strain Hall / ATCC 3502 / NCTC 13319 / Type A)) (UniProt P0DPI1). In words: BoNT/A light chain protease inhibitors, dose response, biochemical, multiplex microsphere flow cytometry, cherry pick 02 (AID 602328). Particulars: BoNT/A LC substrate cleavage. For orientation: Flow cytometry measures light scatter and fluorescence of single cells or particles in a stream.

Chain of Botulinum neurotoxin type A (Clostridium botulinum (strain Hall / ATCC 3502 / NCTC 13319 / Type A)) (P0DPI1 whole entry, looked up): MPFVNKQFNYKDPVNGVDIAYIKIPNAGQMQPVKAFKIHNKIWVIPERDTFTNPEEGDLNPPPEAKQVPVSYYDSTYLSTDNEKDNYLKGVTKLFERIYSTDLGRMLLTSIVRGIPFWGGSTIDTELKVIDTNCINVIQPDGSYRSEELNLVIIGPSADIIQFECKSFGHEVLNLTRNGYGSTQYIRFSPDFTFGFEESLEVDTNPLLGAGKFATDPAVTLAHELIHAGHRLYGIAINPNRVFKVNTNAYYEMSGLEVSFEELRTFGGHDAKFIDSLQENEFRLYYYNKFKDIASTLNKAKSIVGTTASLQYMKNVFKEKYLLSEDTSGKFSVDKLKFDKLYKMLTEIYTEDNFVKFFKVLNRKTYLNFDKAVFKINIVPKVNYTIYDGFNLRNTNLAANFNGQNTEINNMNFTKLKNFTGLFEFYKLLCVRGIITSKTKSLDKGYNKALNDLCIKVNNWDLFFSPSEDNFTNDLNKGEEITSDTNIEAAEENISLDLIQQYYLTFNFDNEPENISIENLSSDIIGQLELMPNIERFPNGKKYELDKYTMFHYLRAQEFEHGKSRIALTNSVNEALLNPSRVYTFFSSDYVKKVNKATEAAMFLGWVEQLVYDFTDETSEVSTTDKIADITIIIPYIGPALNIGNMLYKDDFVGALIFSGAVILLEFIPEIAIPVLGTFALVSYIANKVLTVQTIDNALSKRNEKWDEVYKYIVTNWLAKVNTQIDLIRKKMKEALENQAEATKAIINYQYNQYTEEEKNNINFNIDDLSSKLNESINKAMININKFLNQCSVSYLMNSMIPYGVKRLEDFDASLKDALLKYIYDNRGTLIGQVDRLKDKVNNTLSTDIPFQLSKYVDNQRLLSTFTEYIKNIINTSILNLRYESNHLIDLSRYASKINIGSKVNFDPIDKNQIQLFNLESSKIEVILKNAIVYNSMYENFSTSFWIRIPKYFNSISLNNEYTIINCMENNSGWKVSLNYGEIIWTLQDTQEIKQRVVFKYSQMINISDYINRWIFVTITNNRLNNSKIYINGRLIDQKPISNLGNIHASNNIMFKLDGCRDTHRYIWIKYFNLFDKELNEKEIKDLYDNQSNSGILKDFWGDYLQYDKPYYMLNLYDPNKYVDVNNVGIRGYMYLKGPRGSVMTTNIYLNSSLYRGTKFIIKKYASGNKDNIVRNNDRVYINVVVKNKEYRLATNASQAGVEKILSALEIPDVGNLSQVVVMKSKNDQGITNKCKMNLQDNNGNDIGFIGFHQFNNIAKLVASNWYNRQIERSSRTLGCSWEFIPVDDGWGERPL

Consider `Oc1[nH]c(N=C2N=c3ccccc3=N2)c2ccccc12`, for which the IC50 was > 20 µM (inactive).

In the case of `O=c1c(/C=C(\O)c2ccccc2)nc2ccccc2n1-c1ccccc1`, the IC50 was > 20 µM (inactive).
